Reference: ChEMBL document CHEMBL4627327, “Antibacterial activity of singly and doubly modified salinomycin derivatives” (Bioorg Med Chem Lett, 2020)
≈ marks a conversion by molar mass, not a printed value. Calls of active or inactive are those of the source. The rule behind the calls is not given here.

Key:
[1] = test system: Staphylococcus aureus; assay: Antibacterial activity against Staphylococcus aureus NCTC 4163 assessed as bacterial growth inhibition measured after 18 hrs by CLSI protocol based two-fold serial microdilution method; assay type: functional; conditions: for MIC: NCTC 4163, 18 h
[2] = test system: Staphylococcus aureus; assay: Antibacterial activity against Staphylococcus aureus ATCC 29213 assessed as bacterial growth inhibition measured after 18 hrs by CLSI protocol based two-fold serial microdilution method; assay type: functional; conditions: for MIC: ATCC 29213, 18 h
[3] = test system: Staphylococcus aureus; assay: Antibacterial activity against Staphylococcus aureus ATCC 25923 assessed as bacterial growth inhibition measured after 18 hrs by CLSI protocol based two-fold serial microdilution method; assay type: functional; conditions: for MIC: ATCC 25923, 18 h
[4] = test system: Staphylococcus aureus; assay: Antibacterial activity against Staphylococcus aureus ATCC 6358 assessed as bacterial growth inhibition measured after 18 hrs by CLSI protocol based two-fold serial microdilution method; assay type: functional; conditions: for MIC: ATCC 6358, 18 h
[5] = test system: Staphylococcus epidermidis; assay: Antibacterial activity against Staphylococcus epidermidis ATCC 12228 assessed as bacterial growth inhibition measured after 18 hrs by CLSI protocol based two-fold serial microdilution method; assay type: functional; conditions: for MIC: ATCC 12228, 18 h
[6] = test system: Staphylococcus epidermidis; assay: Antibacterial activity against Staphylococcus epidermidis ATCC 35984 assessed as bacterial growth inhibition measured after 18 hrs by CLSI protocol based two-fold serial microdilution method; assay type: functional; conditions: for MIC: ATCC 35984, 18 h
[7] = test system: Enterococcus hirae; assay: Antibacterial activity against Enterococcus hirae ATCC 10541 assessed as bacterial growth inhibition measured after 18 hrs by CLSI protocol based two-fold serial microdilution method; assay type: functional; conditions: for MIC: ATCC 10541, 18 h
[8] = test system: Micrococcus luteus; assay: Antibacterial activity against Micrococcus luteus ATCC 9341 assessed as bacterial growth inhibition measured after 18 hrs by CLSI protocol based two-fold serial microdilution method; assay type: functional; conditions: for MIC: ATCC 9341, 18 h
[9] = test system: Pseudomonas aeruginosa; assay: Antibacterial activity against Pseudomonas aeruginosa ATCC 15442 assessed as bacterial growth inhibition measured after 18 hrs by CLSI protocol based two-fold serial microdilution method; assay type: functional, organism-based
[10] = test system: Pseudomonas aeruginosa; assay: Antibacterial activity against Pseudomonas aeruginosa ATCC 27853 assessed as bacterial growth inhibition measured after 18 hrs by CLSI protocol based two-fold serial microdilution method; assay type: functional, organism-based
[11] = test system: Escherichia coli; assay: Antibacterial activity against Escherichia coli NCTC 8196 assessed as bacterial growth inhibition measured after 18 hrs by CLSI protocol based two-fold serial microdilution method; assay type: functional, organism-based
[12] = test system: Escherichia coli; assay: Antibacterial activity against Escherichia coli ATCC 25922 assessed as bacterial growth inhibition measured after 18 hrs by CLSI protocol based two-fold serial microdilution method; assay type: functional, organism-based
[13] = test system: Staphylococcus epidermidis; assay: Antibacterial activity against methicillin-resistant Staphylococcus epidermidis isolate 574 assessed as bacterial growth inhibition measured after 18 hrs by CLSI protocol based two-fold serial microdilution method; assay type: functional; conditions: isolate 574, 18 h
[14] = test system: Staphylococcus epidermidis; assay: Antibacterial activity against methicillin-resistant Staphylococcus epidermidis isolate 602 assessed as bacterial growth inhibition measured after 18 hrs by CLSI protocol based two-fold serial microdilution method; assay type: functional; conditions: isolate 602, 18 h
[15] = test system: Staphylococcus epidermidis; assay: Antibacterial activity against methicillin-resistant Staphylococcus epidermidis isolate 603 assessed as bacterial growth inhibition measured after 18 hrs by CLSI protocol based two-fold serial microdilution method; assay type: functional; conditions: isolate 603, 18 h
[16] = test system: Staphylococcus epidermidis; assay: Antibacterial activity against methicillin-resistant Staphylococcus epidermidis isolate 609 assessed as bacterial growth inhibition measured after 18 hrs by CLSI protocol based two-fold serial microdilution method; assay type: functional; conditions: isolate 609, 18 h
[17] = test system: Staphylococcus epidermidis; assay: Antibacterial activity against methicillin-resistant Staphylococcus epidermidis isolate 610 assessed as bacterial growth inhibition measured after 18 hrs by CLSI protocol based two-fold serial microdilution method; assay type: functional; conditions: isolate 610, 18 h
[18] = test system: Staphylococcus epidermidis; assay: Antibacterial activity against methicillin-resistant Staphylococcus epidermidis isolate 654 assessed as bacterial growth inhibition measured after 18 hrs by CLSI protocol based two-fold serial microdilution method; assay type: functional; conditions: isolate 654, 18 h
[19] = test system: Staphylococcus epidermidis; assay: Antibacterial activity against methicillin-resistant Staphylococcus epidermidis isolate 660 assessed as bacterial growth inhibition measured after 18 hrs by CLSI protocol based two-fold serial microdilution method; assay type: functional; conditions: isolate 660, 18 h
[20] = test system: Staphylococcus aureus; assay: Antibacterial activity against methicillin-resistant Staphylococcus aureus isolate 583 assessed as bacterial growth inhibition measured after 18 hrs by CLSI protocol based two-fold serial microdilution method; assay type: functional; conditions: isolate 583, 18 h
[21] = test system: Staphylococcus aureus; assay: Antibacterial activity against methicillin-resistant Staphylococcus aureus isolate 584 assessed as bacterial growth inhibition measured after 18 hrs by CLSI protocol based two-fold serial microdilution method; assay type: functional; conditions: isolate 584, 18 h
[22] = test system: Staphylococcus aureus; assay: Antibacterial activity against methicillin-resistant Staphylococcus aureus isolate 612 assessed as bacterial growth inhibition measured after 18 hrs by CLSI protocol based two-fold serial microdilution method; assay type: functional; conditions: isolate 612, 18 h
[23] = test system: Staphylococcus aureus; assay: Antibacterial activity against methicillin-resistant Staphylococcus aureus isolate 620 assessed as bacterial growth inhibition measured after 18 hrs by CLSI protocol based two-fold serial microdilution method; assay type: functional; conditions: isolate 620, 18 h
[24] = test system: Staphylococcus aureus; assay: Antibacterial activity against methicillin-resistant Staphylococcus aureus isolate 621 assessed as bacterial growth inhibition measured after 18 hrs by CLSI protocol based two-fold serial microdilution method; assay type: functional; conditions: isolate 621, 18 h
[25] = test system: Staphylococcus aureus; assay: Antibacterial activity against methicillin-resistant Staphylococcus aureus isolate 750 assessed as bacterial growth inhibition measured after 18 hrs by CLSI protocol based two-fold serial microdilution method; assay type: functional; conditions: isolate 750, 18 h
[26] = test system: Staphylococcus aureus; assay: Antibacterial activity against methicillin-resistant Staphylococcus aureus isolate 770 assessed as bacterial growth inhibition measured after 18 hrs by CLSI protocol based two-fold serial microdilution method; assay type: functional; conditions: isolate 770, 18 h
[27] = test system: Staphylococcus epidermidis; assay: Inhibition of biofilm formation in Staphylococcus epidermidis ATCC 35984 at 1 to 8 ug/ml measured after 24 hrs by crystal violet staining based assay; assay type: functional, organism-based
[28] = test system: Staphylococcus epidermidis; assay: Inhibition of biofilm formation in Staphylococcus epidermidis ATCC 12228 at 1 to 8 ug/ml measured after 24 hrs by crystal violet staining based assay; assay type: functional, organism-based
[29] = Genotoxicity in rec negative Bacillus subtilis M45 assessed as diameter of inhibition zone at 256 ug measured after 24 hrs by rec-assay; assay type: toxicity; conditions: in vivo
[30] = Genotoxicity in rec-positive Bacillus subtilis H17 assessed as diameter of inhibition zone at 256 ug measured after 24 hrs by rec-assay; assay type: toxicity; conditions: in vivo

Row | SMILES | Activity [9] | Activity [10] | Activity [11] | Activity [12] | MIC [13] | MIC [14] | MIC [15] | MIC [16] | MIC [17] | MIC [18] | MIC [19] | MIC [20] | MIC [21] | MIC [22] | MIC [23] | MIC [24] | MIC [25] | MIC [26] | inhibition [27] | inhibition [28] | other results
1 | CC[C@@H](C(=O)[C@@H](C)[C@@H](O)[C@H](C)[C@@H]1O[C@@H]([C@@H](CC)C(=O)ONC(=O)c2ccccc2)CC[C@@H]1C)[C@H]1O[C@]2(C=CC(=O)[C@]3(CC[C@@](C)([C@H]4CC[C@](O)(CC)[C@H](C)O4)O3)O2)[C@H](C)C[C@@H]1C | inactive | inactive | inactive | inactive | 2.3 µM (≈ 2 µg/mL) | 4.61 µM (≈ 4 µg/mL) | 4.61 µM (≈ 4 µg/mL) | 9.22 µM (≈ 8 µg/mL) | 18.4 µM (≈ 16 µg/mL) | 73.7 µM (≈ 64 µg/mL) | 73.7 µM (≈ 64 µg/mL) | 36.9 µM (≈ 32 µg/mL) | 36.9 µM (≈ 32 µg/mL) | 18.4 µM (≈ 16 µg/mL) | 18.4 µM (≈ 16 µg/mL) | 4.61 µM (≈ 4 µg/mL) | 18.4 µM (≈ 16 µg/mL) | 73.7 µM (≈ 64 µg/mL) | Active | Active | Activity [1]: Active; Activity [2]: Active; Activity [3]: Active; Activity [4]: Active; Activity [5]: Active; Activity [6]: Active; Activity [7]: Active; Activity [8]: Active; diameter of the inhibition zone (DIZ) [29]: 23 mm; diameter of the inhibition zone (DIZ) [30]: 20 mm
2 | CC[C@@H](C(=O)[C@@H](C)[C@@H](O)[C@H](C)[C@@H]1O[C@@H]([C@@H](CC)C(=O)ONC(=O)c2ccccc2)CC[C@@H]1C)[C@H]1O[C@]2(C=C[C@@H](O)[C@]3(CC[C@@](C)([C@H]4CC[C@](O)(CC)[C@H](C)O4)O3)O2)[C@H](C)C[C@@H]1C | inactive | inactive | inactive | inactive | 2.3 µM (≈ 2 µg/mL) | 4.6 µM (≈ 4 µg/mL) | 4.6 µM (≈ 4 µg/mL) | 4.6 µM (≈ 4 µg/mL) | 4.6 µM (≈ 4 µg/mL) | 18.4 µM (≈ 16 µg/mL) | 18.4 µM (≈ 16 µg/mL) | 18.4 µM (≈ 16 µg/mL) | 18.4 µM (≈ 16 µg/mL) | 4.6 µM (≈ 4 µg/mL) | 4.6 µM (≈ 4 µg/mL) | 2.3 µM (≈ 2 µg/mL) | 4.6 µM (≈ 4 µg/mL) | 9.19 µM (≈ 8 µg/mL) | Active | Active | MIC [1]: 1 to 16 µg/mL (≈ 1.15 to 18.4 µM); MIC [2]: 1 to 16 µg/mL (≈ 1.15 to 18.4 µM); MIC [3]: 1 to 16 µg/mL (≈ 1.15 to 18.4 µM); MIC [4]: 1 to 16 µg/mL (≈ 1.15 to 18.4 µM); MIC [5]: 1 to 16 µg/mL (≈ 1.15 to 18.4 µM); MIC [6]: 1 to 16 µg/mL (≈ 1.15 to 18.4 µM); MIC [7]: 1 to 16 µg/mL (≈ 1.15 to 18.4 µM); MIC [8]: 1 to 16 µg/mL (≈ 1.15 to 18.4 µM); diameter of the inhibition zone (DIZ) [29]: 32 mm; diameter of the inhibition zone (DIZ) [30]: 25 mm
3 | CC[C@@H](C(=O)[C@@H](C)[C@@H](O)[C@H](C)[C@@H]1O[C@@H]([C@@H](CC)C(=O)ONC(=O)c2ccccc2O)CC[C@@H]1C)[C@H]1O[C@]2(C=C[C@@H](O)[C@]3(CC[C@@](C)([C@H]4CC[C@](O)(CC)[C@H](C)O4)O3)O2)[C@H](C)C[C@@H]1C | inactive | inactive | inactive | inactive | 1.13 µM (≈ 1 µg/mL) | 2.26 µM (≈ 2 µg/mL) | 2.26 µM (≈ 2 µg/mL) | 2.26 µM (≈ 2 µg/mL) | 2.26 µM (≈ 2 µg/mL) | 4.51 µM (≈ 4 µg/mL) | 4.51 µM (≈ 4 µg/mL) | 2.26 µM (≈ 2 µg/mL) | 4.51 µM (≈ 4 µg/mL) | 2.26 µM (≈ 2 µg/mL) | 2.26 µM (≈ 2 µg/mL) | 2.26 µM (≈ 2 µg/mL) | 2.26 µM (≈ 2 µg/mL) | 4.51 µM (≈ 4 µg/mL) | Active | Active | MIC [1]: 1 to 16 µg/mL (≈ 1.13 to 18.1 µM); MIC [2]: 1 to 16 µg/mL (≈ 1.13 to 18.1 µM); MIC [3]: 1 to 16 µg/mL (≈ 1.13 to 18.1 µM); MIC [4]: 1 to 16 µg/mL (≈ 1.13 to 18.1 µM); MIC [5]: 1 to 16 µg/mL (≈ 1.13 to 18.1 µM); MIC [6]: 1 to 16 µg/mL (≈ 1.13 to 18.1 µM); MIC [7]: 1 to 16 µg/mL (≈ 1.13 to 18.1 µM); MIC [8]: 1 to 16 µg/mL (≈ 1.13 to 18.1 µM); diameter of the inhibition zone (DIZ) [29]: 30 mm; diameter of the inhibition zone (DIZ) [30]: 24 mm
